Here are results for five molecules from patent US20250066724A1, “GENERATION OF HUMAN SPINAL CORD NEURAL STEM CELLS” (THE REGENTS OF THE UNIVERSITY OF CALIFORNIA, priority 2023, published 2025).

Experiment [1] relates to neurons differentiated from H9-derived spinal cord NSCs. Description: Whole-cell patch clamp electrophysiology of neurons differentiated from H9-derived spinal cord NSCs. To be noted: spontaneous postsynaptic currents, all three drugs. A general note: The patch-clamp technique gives a direct electrical read-out from membranes.
The subject of the next experiment is SOX1+/SOX2+/Nestin+ NSCs. Description: Long-term maintenance culture of spinal cord NSCs. It is filed as cell-based, human. To be noted: due to differentiation, data not shown.

As to picrotoxin, the “spiking of neuron after glutamate receptor and GABA-A receptor antagonists” value (“spiking of neuron” for short) in experiment [1] is “no change in spiking”.

For the molecule `CNC1CCC(N(Cc2cccc(-c3ccncc3)c2)C(=O)c2sc3c(F)ccc(F)c3c2Cl)CC1` (centres unmarked) [Hh-Ag1.5], in the experiment with SOX1+/SOX2+/Nestin+ NSCs, the “culture maintenance over time on omission of the component from maintenance medium” value is recorded as “failure to sustain cultures”.

On to `Cc1c[nH]c(-c2cnc(NCCNc3ccc(C#N)cn3)nc2-c2ccc(Cl)cc2Cl)n1` [CHIR, CHIR99021], for which the “culture maintenance over time on omission of the component from maintenance medium” value in the experiment with SOX1+/SOX2+/Nestin+ NSCs is listed as “failure to sustain cultures”.

In the case of `N[C@@H](CCCP(=O)(O)O)C(=O)O` [APV], in experiment [1], the “spiking of neuron” value was “no change in spiking”.

For `O=[N+]([O-])c1cc2nc(O)c(O)nc2cc1[N+](=O)[O-]` [DNQX], in experiment [1], the “spiking of neuron” value is recorded as “no change in spiking”.
